Measured values as given in patent US10894798B2, “Substituted dihydropyrrolopyrazole derivative” (UBE INDUSTRIES, LTD., priority 2015, dated 2021).

Columns and labels:
CDK7 = molecular target: T1, CDK7 (Homo sapiens, UniProt P50613); assay: CDK7 enzyme inhibition test; format: biochemical; conditions: [γ-33P]ATP, MBP substrate, 60 min preincubation at 25°C; Ki=IC50/(1+S/Km); read-out: Ki value of CDK7 inhibitory activity
T1 construct: purchased Carna Biosciences, Inc. 04-108
Method in brief: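 Commercial human CDK7 with myelin basic protein substrate in HEPES pH 7.4 buffer with DTT, Triton X-100, MgCl2; compound preincubated 60 min at 25° C, then reaction run 20 min at 30° C after adding [γ-^33P]ATP (500 μM solution). TCA-precipitated ^33P-MBP counted by scintillation; IC50 converted to Ki via Ki=IC50/(1+S/Km).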

PLK1 = molecular target: T2, PLK1 (Homo sapiens, UniProt P53350); assay: PLK1 enzyme (polo-like kinase) inhibition test; format: biochemical; conditions: [γ-33P]ATP, casein substrate; Ki=IC50/(1+S/Km); read-out: Ki value of PLK1 inhibitory activity
T2 construct: purchased Carna Biosciences, Inc. 05-157
Method in brief: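 Recombinant PLK1 phosphorylates casein with [γ-^33P]ATP in MOPS buffer (pH 7.0) containing DTT and magnesium acetate, 20 min at 30° C. Reaction stopped with TCA; washed precipitate counted by liquid scintillation. IC50 for inhibition of ^33P incorporation into casein, converted to Ki via Ki=IC50/(1+S/Km).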

[1] = system: human large intestine cancer cell (HCT 116) tumor; assay: Tumor growth inhibition test in HCT 116-subcutaneously transplanted nude mouse; format: in vivo; conditions: dose of 100 mg/kg, repeated oral administration, HCT-116 in female BALB nude mice, control group = 100%, read-out: rate of suppression of tumor volume
Protocol: A human large intestine cancer cell line (HCT-116) was cultured in a McCoy's 5A medium containing 10% FBS and 1% penicillin/streptomycin/amphotericin B and adjusted to 1.0×10^8 cells/mL with PBS or Hanks solution (HBSS(−)). The prepared cell suspension was subcutaneously injected at 0.1 mL/mouse to the right abdomens of female BALB nude mice (supplied by Charles River Laboratories Japan, Inc.). After rearing for a certain period, the long diameter (mm) and short diameter (mm) of tumor were measured with electronic calipers, and the tumor volume was calculated according to the following expression: Tumor volume (mm^3)=(Long diameter)×(Short diameter)×(Short diameter)×0.5
Individuals whose tumor volume was within the range of 50 to 200 mm^3 were selected and grouped such that the tumor volume was almost equivalent, then a test compound or only a solvent was orally administered in a repeated manner, and the body weights and tumor volume were measured. A test compound was suspended in a 0.5 w/v % aqueous methylcellulose solution (0.5% MC) (manufactured by Wako Pure Chemical Industries, Ltd.) and orally administered at 10 mL/kg in a repeated manner. When the tumor volume of the control group was defined as 100%, the rate of suppression of tumor volume (%) at each dose of the test compound was calculated.

T2 sequence (P53350 whole entry): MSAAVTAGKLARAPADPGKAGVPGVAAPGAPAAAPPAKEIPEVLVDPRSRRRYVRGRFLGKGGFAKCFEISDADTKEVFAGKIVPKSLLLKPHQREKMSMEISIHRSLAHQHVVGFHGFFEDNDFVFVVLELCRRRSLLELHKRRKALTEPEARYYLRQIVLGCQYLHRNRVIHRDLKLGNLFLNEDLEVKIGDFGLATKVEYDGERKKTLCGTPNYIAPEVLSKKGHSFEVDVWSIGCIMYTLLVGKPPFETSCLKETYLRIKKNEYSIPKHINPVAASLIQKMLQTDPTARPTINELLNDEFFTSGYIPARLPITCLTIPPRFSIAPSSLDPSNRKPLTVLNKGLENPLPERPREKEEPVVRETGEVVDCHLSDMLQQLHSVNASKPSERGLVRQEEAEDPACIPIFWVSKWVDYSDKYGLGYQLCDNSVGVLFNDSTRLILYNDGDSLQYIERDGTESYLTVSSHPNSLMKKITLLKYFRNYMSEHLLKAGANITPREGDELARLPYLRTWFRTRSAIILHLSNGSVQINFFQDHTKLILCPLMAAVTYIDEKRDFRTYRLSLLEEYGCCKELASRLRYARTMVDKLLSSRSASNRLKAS
T1 sequence (P50613 whole entry): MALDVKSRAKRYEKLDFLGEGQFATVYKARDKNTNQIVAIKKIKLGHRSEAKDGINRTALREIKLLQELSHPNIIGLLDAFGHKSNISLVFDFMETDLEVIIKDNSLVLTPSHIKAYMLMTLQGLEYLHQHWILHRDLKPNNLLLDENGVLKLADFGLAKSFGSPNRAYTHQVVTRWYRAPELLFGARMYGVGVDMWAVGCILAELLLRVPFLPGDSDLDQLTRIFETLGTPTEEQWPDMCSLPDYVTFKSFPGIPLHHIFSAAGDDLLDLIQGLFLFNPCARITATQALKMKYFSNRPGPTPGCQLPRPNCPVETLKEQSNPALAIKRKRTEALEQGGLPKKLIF
T1 sequence (P51946 whole entry partner): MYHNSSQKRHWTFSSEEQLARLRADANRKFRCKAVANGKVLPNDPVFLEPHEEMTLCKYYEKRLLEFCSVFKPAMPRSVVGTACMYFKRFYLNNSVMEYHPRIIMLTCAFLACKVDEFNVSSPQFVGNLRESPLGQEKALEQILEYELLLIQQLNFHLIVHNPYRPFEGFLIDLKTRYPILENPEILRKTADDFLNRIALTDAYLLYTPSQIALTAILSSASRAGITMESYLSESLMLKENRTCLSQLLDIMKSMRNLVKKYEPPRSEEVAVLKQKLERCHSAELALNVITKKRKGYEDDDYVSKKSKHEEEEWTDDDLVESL
T1 sequence (P51948 whole entry partner): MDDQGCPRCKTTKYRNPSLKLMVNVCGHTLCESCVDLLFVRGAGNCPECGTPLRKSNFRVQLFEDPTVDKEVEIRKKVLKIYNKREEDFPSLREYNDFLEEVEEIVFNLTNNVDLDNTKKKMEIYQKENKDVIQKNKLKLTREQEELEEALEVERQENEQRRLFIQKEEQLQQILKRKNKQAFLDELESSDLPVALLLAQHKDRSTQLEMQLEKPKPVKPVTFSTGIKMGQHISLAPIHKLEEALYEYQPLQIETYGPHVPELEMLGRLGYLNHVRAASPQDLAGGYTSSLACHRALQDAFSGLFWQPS

Row | SMILES | Ki (CDK7) [nM] | Ki (PLK1) [nM] | inhibition in vivo at 100 mg/kg [1] [%]
1 | Cc1ccccc1NC(=O)N1Cc2c(NC(=O)C3([Si](C)(C)C)CCC3)n[nH]c2C1(C)C [IV-21, 6,6-Dimethyl-N-(o-tolyl)-3-[1-(trimethylsilyl)cyclobutanecarboxamido]-4,6-dihydropyrrolo[3,4-c]pyrazole-5(1H)-carboxamide] | ≤ 50 | ≥ 5000 | ≥ 50
2 | CC1(C)c2[nH]nc(NC(=O)C3([Si](C)(C)C)CCC3)c2CN1C(=O)Nc1c(F)cccc1Cl [IV-113, N-(2-Chloro-6-fluorophenyl)-6,6-dimethyl-3-[1-(trimethylsilyl)cyclobutanecarboxamido]-4,6-dihydropyrrolo[3,4-c]pyrazole-5(1H)-carboxamide] | ≤ 50 | ≥ 5000 | ≥ 50
3 | Cc1ccc(F)c(NC(=O)N2Cc3c(NC(=O)C4([Si](C)(C)C)CCC4)n[nH]c3C2(C)C)c1 [IV-127, N-(2-Fluoro-5-methylphenyl)-6,6-dimethyl-3-[1-(trimethylsilyl)cyclobutanecarboxamido]-4,6-dihydropyrrolo[3,4-c]pyrazole-5 (1H)-carboxamide] | ≤ 50 | ≥ 5000 | ≥ 50
4 | CCc1cccc(F)c1NC(=O)N1Cc2c(NC(=O)C3([Si](C)(C)C)CCC3)n[nH]c2C1(C)C [IV-137, N-(2-Ethyl-6-fluorophenyl)-6,6-dimethyl-3-[1-(trimethylsilyl)cyclobutanecarboxamido]-4,6-dihydropyrrolo[3,4-c]pyrazole-5(1H)-carboxamide] | ≤ 50 | ≥ 5000 | –
5 | Cc1cccc(Cl)c1NC(=O)N1Cc2c(NC(=O)C3([Si](C)(C)C)CCC3)n[nH]c2C1(C)C [IV-215, N-(2-Chloro-6-methylphenyl)-6,6-dimethyl-3-[1-(trimethylsilyl)cyclobutanecarboxamido]-4,6-dihydropyrrolo[3,4-c]pyrazole-5 (1H)-carboxamide] | ≤ 50 | ≥ 5000 | ≥ 50
6 | COc1cccc(Cl)c1NC(=O)N1Cc2c(NC(=O)C3([Si](C)(C)C)CCC3)n[nH]c2C1(C)C [IV-247, N-(2-Chloro-6-methoxyphenyl)-6,6-dimethyl-3-[1-(trimethylsilyl)cyclobutanecarboxamido]-4,6-dihydropyrrolo[3,4-c]pyrazole-5(1H)-carboxamide] | ≤ 50 | ≥ 5000 | –
7 | Cc1cccc(Br)c1NC(=O)N1Cc2c(NC(=O)C3([Si](C)(C)C)CCC3)n[nH]c2C1(C)C [IV-299, N-(2-Bromo-6-methylphenyl)-6,6-dimethyl-3-[1-(trimethylsilyl)cyclobutanecarboxamido]-4,6-dihydropyrrolo[3,4-c]pyrazole-5 (1H)-carboxamide] | ≤ 50 | ≥ 5000 | ≥ 50
8 | Cc1ccc(F)cc1NC(=O)N1Cc2c(NC(=O)C3([Si](C)(C)C)CCC3)n[nH]c2C1(C)C [IV-361, N-(5-Fluoro-2-methylphenyl)-6,6-dimethyl-3-[1-(trimethylsilyl)cyclobutanecarboxamido]-4,6-dihydropyrrolo[3,4-c]pyrazole-5 (1H)-carboxamide] | ≤ 50 | ≥ 5000 | ≥ 50
9 | CC1(C)c2[nH]nc(NC(=O)C3([Si](C)(C)C)CCC3)c2CN1C(=O)Nc1c(F)ccc(F)c1F [IV-597, 6,6-Dimethyl-N-(2,3,6-trifluorophenyl)-3-[1-(trimethylsilyl)cyclobutanecarboxamido]-4,6-dihydropyrrolo[3,4-c]pyrazole-5(1H)-carboxamide] | ≤ 50 | ≥ 5000 | ≥ 50
10 | CC1(C)c2[nH]nc(NC(=O)C3([Si](C)(C)C)CCC3)c2CN1C(=O)Nc1c(F)ccc2ccoc12 [IV-1049, N-(6-Fluorobenzofuran-7-yl)-6,6-dimethyl-3-[1-(trimethylsilyl)cyclobutanecarboxamido]-4,6-dihydropyrrolo[3,4-c]pyrazole-5 (1H)-carboxamide] | ≤ 50 | ≥ 5000 | ≥ 50
11 | CC1(C)c2[nH]nc(NC(=O)C3([Si](C)(C)C)CCC3)c2CN1C(=O)Nc1c(F)ccc2cc(Cl)oc12 [IV-1063, N-(2-Chloro-6-fluorobenzofuran-7-yl)-6,6-dimethyl-3-[1-(trimethylsilyl)cyclobutanecarboxamido]-4,6-dihydropyrrolo[3,4-c]pyrazole-5(1H)-carboxamide] | ≤ 50 | ≥ 5000 | ≥ 50

Second part, led by results:

Row | Ki (CDK7) [nM] | Ki (PLK1) [nM] | SMILES | inhibition in vivo at 100 mg/kg [1] [%]
12 | ≤ 50 | ≥ 5000 | CC1(C)c2[nH]nc(NC(=O)C3([Si](C)(C)C)CCC3)c2CN1C(=O)Nc1ccccc1F [IV-3, N-(2-Fluorophenyl)-6,6-dimethyl-3-[1-(trimethylsilyl)cyclobutanecarboxamido]-4,6-dihydropyrrolo[3,4-c]pyrazole-5(1H)-carboxamide] | ≥ 50
13 | ≤ 50 | ≥ 5000 | CC1(C)c2[nH]nc(NC(=O)C3([Si](C)(C)C)CCC3)c2CN1C(=O)Nc1ccccc1Br [IV-15, N-(2-Bromophenyl)-6,6-dimethyl-3-[1-(trimethylsilyl)cyclobutanecarboxamido]-4,6-dihydropyrrolo[3,4-c]pyrazole-5(1H)-carboxamide] | ≥ 50
14 | ≤ 50 | ≥ 5000 | Cc1cccc(F)c1NC(=O)N1Cc2c(NC(=O)C3([Si](C)(C)C)CCC3)n[nH]c2C1(C)C [IV-129, N-(2-Fluoro-6-methylphenyl)-6,6-dimethyl-3-[1-(trimethylsilyl)cyclobutanecarboxamido]-4,6-dihydropyrrolo[3,4-c]pyrazole-5 (1H)-carboxamide] | –
15 | ≤ 50 | ≥ 5000 | COc1cccc(F)c1NC(=O)N1Cc2c(NC(=O)C3([Si](C)(C)C)CCC3)n[nH]c2C1(C)C [IV-161, N-(2-Fluoro-6-methoxyphenyl)-6,6-dimethyl-3-[1-(trimethylsilyl)cyclobutanecarboxamido]-4,6-dihydropyrrolo[3,4-c]pyrazole-5(1H)-carboxamide] | –
16 | ≤ 50 | ≥ 5000 | CC1(C)c2[nH]nc(NC(=O)C3([Si](C)(C)C)CCC3)c2CN1C(=O)Nc1c(F)cccc1OC(F)F [IV-169, N-[2-(Difluoromethoxy)-6-fluorophenyl]-6,6-dimethyl-3-[1-(trimethylsilyl)cyclobutanecarboxamido]-4,6-dihydropyrrolo[3,4-c]pyrazole-5(1H)-carboxamide] | –
17 | ≤ 50 | ≥ 5000 | CC1(C)c2[nH]nc(NC(=O)C3([Si](C)(C)C)CCC3)c2CN1C(=O)Nc1c(Cl)cccc1Cl [IV-199, N-(2,6-Dichlorophenyl)-6,6-dimethyl-3-[1-(trimethylsilyl)cyclobutanecarboxamido]-4,6-dihydropyrrolo[3,4-c]pyrazole-5(1H)-carboxamide] | ≥ 50
18 | ≤ 50 | ≥ 5000 | Cc1cc(F)ccc1NC(=O)N1Cc2c(NC(=O)C3([Si](C)(C)C)CCC3)n[nH]c2C1(C)C [IV-359, N-(4-Fluoro-2-methylphenyl)-6,6-dimethyl-3-[1-(trimethylsilyl)cyclobutanecarboxamido]-4,6-dihydropyrrolo[3,4-c]pyrazole-5 (1H)-carboxamide] | ≥ 50
19 | ≤ 50 | ≥ 5000 | Cc1ccc(C)c(NC(=O)N2Cc3c(NC(=O)C4([Si](C)(C)C)CCC4)n[nH]c3C2(C)C)c1 [IV-379, N-(2,5-Dimethylphenyl)-6,6-dimethyl-3-[1-(trimethylsilyl)cyclobutanecarboxamido]-4,6-dihydropyrrolo[3,4-c]pyrazole-5(1H)-carboxamide] | ≥ 50
20 | ≤ 50 | ≥ 5000 | CCc1cccc(C)c1NC(=O)N1Cc2c(NC(=O)C3([Si](C)(C)C)CCC3)n[nH]c2C1(C)C [IV-389, N-(2-Ethyl-6-methylphenyl)-6,6-dimethyl-3-[1-(trimethylsilyl)cyclobutanecarboxamido]-4,6-dihydropyrrolo[3,4-c]pyrazole-5 (1H)-carboxamide] | ≥ 50
21 | ≤ 50 | ≥ 5000 | Cc1ccc(C)c(NC(=O)N2Cc3c(NC(=O)C4([Si](C)(C)C)CCC4)n[nH]c3C2(C)C)c1F [IV-669, N-(2-Fluoro-3,6-dimethylphenyl)-6,6-dimethyl-3-[1-(trimethylsilyl)cyclobutanecarboxamido]-4,6-dihydropyrrolo[3,4-c]pyrazole-5(1H)-carboxamide] | ≥ 50
